Source: patent US6946458B2, “N-thiolated beta-lactams: novel antibacterial agents for methicillin-resistant Staphylococcus aureus” (University of South Florida, priority 1999, dated 2005)
Like-named read-outs stand apart in the source and are kept apart here.

Experiments:
Staph aureus 525 = experiment: Kirby-Bauer agar disk diffusion; type: cell-based, Staphylococcus aureus
[1] = test system: cultures of S. aureus and MRSA; experiment: electron microscopy of cell morphology; type: cell-based, Staphylococcus aureus; settings: Example 1; electron microscopy, high magnification
Excerpt: The structure-bioactivity patterns observed for these N-thiolated lactams are highly atypical for a β-lactam antibiotic. The compounds are lipohilic and devoid of the typical acidic ring functionality required for recognition by the penicillin binding proteins. The implication that the lactams set forth in FIGS. 1A-1I are not acting in the same manner or on the same enzymes as the traditional β-lactam drugs is supported by electron microscopy experiments, which confirm that cell morphology is unaffected by the lactam of FIG. 1D (Greenwood, D. et al. Science, 1969, 163:1076).
In fact, only small isolated colonies of surviving cells can be found, all of which appear perfectly normal in size, shape, smoothness, and clustering behavior. […] Pulse radiolabeling experiments indicate that the lactam of FIG. 1D blocks the bacterial uptake of ^3H-uridine and ^3H-leucine at low (MIC) levels (Lim, D. V. et al. Microbiology, 1977, 33:328; Champney, W. S. and C. G. Tober Antimicrob. Agents and Chemother., 2000, 44:1413).
Light microscopy and scanning electron microscopy experiments have enabled us to look for cell wall damage in cultures of S. aureus and MRSA grown in the presence of N-methylthio lactam (FIG. 11F) over a range of different concentrations and cell growth conditions. […] Those cells that survive the treatment appear normal (coccal) and fully mature.

MRSA USF653 = experiment: Kirby-Bauer agar disk diffusion; type: cell-based, Staphylococcus aureus; parameters: Kirby-Bauer Disc Diffusion Test Results: unit not given here; settings: for zone of inhibition at 20 µg/disc: Staphylococcus aureus, MRSA
How it was run: (§1)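 Test compound (20 μg) was impregnated onto 6-mm disks, air-dried and placed on agar plates inoculated with the β-lactamase-producing MRSA strain. After 24 h the diameter of the growth-inhibition zone was measured in mm. Reported values are triplicate means.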

MRSA USF657 = experiment: Kirby-Bauer agar disk diffusion; type: cell-based, Staphylococcus aureus; parameters: Kirby-Bauer Disc Diffusion Test Results: unit not given here; settings: for zone of inhibition at 20 µg/disc: Staphylococcus aureus, MRSA
How it was run: as §1

MRSA USF659 = experiment: Kirby-Bauer agar disk diffusion; type: cell-based, Staphylococcus aureus; parameters: Kirby-Bauer Disc Diffusion Test Results: unit not given here; settings: for zone of inhibition at 20 µg/disc: Staphylococcus aureus, MRSA
How it was run: as §1

MRSA USF656 = experiment: Kirby-Bauer agar disk diffusion; type: cell-based, Staphylococcus aureus; parameters: Kirby-Bauer Disc Diffusion Test Results: unit not given here; settings: for zone of inhibition at 20 µg/disc: Staphylococcus aureus, MRSA
How it was run: as §1

MRSA USF655 = experiment: Kirby-Bauer agar disk diffusion; type: cell-based, Staphylococcus aureus; parameters: Kirby-Bauer Disc Diffusion Test Results: unit not given here; settings: for zone of inhibition at 20 µg/disc: Staphylococcus aureus, MRSA
How it was run: as §1

Micrococcus luteus = experiment: Kirby-Bauer agar disk diffusion; type: cell-based; settings: 6-mm disks, 20 μg test compound
How it was run: (§2)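 Agar disk diffusion used 6-mm air-dried disks carrying 20 μg of compound. Values are mean diameters (mm) of the growth-inhibition zone at 24 h, from triplicate experiments. S. epidermidis and S. simulans were clinical isolates.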

[2] = test system: Staphylococcus aureus (ATCC 25923); experiment: Kirby-Bauer agar disk diffusion; type: cell-based; settings: 6-mm disks, 20 μg test compound
How it was run: as §2

[3] = test system: Staphylococcus epidermidis; experiment: Kirby-Bauer agar disk diffusion; type: cell-based; settings: 6-mm disks, 20 μg test compound
How it was run: as §2

[4] = Table 1, 6-mm disks, 20 μg test compound, 24 h, triplicate, read-out: zone of growth inhibition, average diameter
[5] = Table 4, 20 μg disk loading, read-out: Zones of Inhibition
[6] = Table 6, 20 μg disk loading, read-out: The Zone of Inhibition
[7] = Table 3, 6-mm disks, 20 μg test compound, 24 hours
[8] = Table 5, beta-lactamase producing strain

For `CC1(C)S[C@@H]2[C@H](NC(=O)Cc3ccccc3)C(=O)N2[C@H]1C(=O)O` [PenG, penicillin G, reference compound], the zone of inhibition at 20 µg/disc (Staph aureus 525; Staphylococcus aureus, 525, Table 4, 20 μg disk loading, read-out: Zones of Inhibition) was 33 mm, the “Kirby-Bauer Disc Diffusion Test Results” value (Staph aureus 525; Table 5) was 33 and the cell morphology [1] was “wrinkled, deformed, or even sheared”. For the same compound, the zone of inhibition at 20 µg/disc (MRSA USF653; [4]) was 16 mm, the zone of inhibition at 20 µg/disc (MRSA USF653; [5]) was 15 mm and the zone of inhibition at 20 µg/disc (MRSA USF653; [6]) was 15 mm. The “zone of growth inhibition, average diameter” value (“zone of growth inhibition” for short) (MRSA USF653; [7]) was 16 mm, the “Kirby-Bauer Disc Diffusion Test Results” value (MRSA USF653; [8]) was 15 and the zone of inhibition at 20 µg/disc (MRSA USF657; [4]) was 12 mm. For the same compound, the zone of inhibition at 20 µg/disc (MRSA USF657; [5]) was 12 mm, the zone of inhibition at 20 µg/disc (MRSA USF657; [6]) was 12 mm and the “zone of growth inhibition” value (MRSA USF657; [7]) was 12 mm. For the same compound, the “Kirby-Bauer Disc Diffusion Test Results” value (MRSA USF657; [8]) was 12, the zone of inhibition at 20 µg/disc (MRSA USF659; [4]) was 15 mm and the zone of inhibition at 20 µg/disc (MRSA USF659; [5]) was 15 mm. For the same compound, the zone of inhibition at 20 µg/disc (MRSA USF659; [6]) was 16 mm, the “zone of growth inhibition” value (MRSA USF659; [7]) was 15 mm and the “Kirby-Bauer Disc Diffusion Test Results” value (MRSA USF659; [8]) was 16. The zone of inhibition at 20 µg/disc (MRSA USF656; [4]) was 12 mm, the zone of inhibition at 20 µg/disc (MRSA USF656; [5]) was 12 mm and the zone of inhibition at 20 µg/disc (MRSA USF656; [6]) was 10 mm. The “zone of growth inhibition” value (MRSA USF656; [7]) was 12 mm, the “Kirby-Bauer Disc Diffusion Test Results” value (MRSA USF656; [8]) was 10 and the zone of inhibition at 20 µg/disc (MRSA USF655; [4]) was 14 mm. The zone of inhibition at 20 µg/disc (MRSA USF655; [5]) was 14 mm, the zone of inhibition at 20 µg/disc (MRSA USF655; [6]) was 13 mm and the “zone of growth inhibition” value (MRSA USF655; [7]) was 14 mm. For the same compound, the “Kirby-Bauer Disc Diffusion Test Results” value (MRSA USF655; Table 5) was 13, the zone of inhibition at 20 µg/disc (Micrococcus luteus; Micrococcus luteus, Table 1, 24 h, triplicate, read-out: zone of growth inhibition, average diameter) was 40 mm and the “zone of growth inhibition” value (Micrococcus luteus; Table 3, 24 hours) was 40 mm. The zone of inhibition at 20 µg/disc ([2]; Staphylococcus aureus, ATCC25923, Table 1, 24 h, triplicate, read-out: zone of growth inhibition, average diameter) was 34 mm, the “zone of growth inhibition” value ([2]; Table 3, 24 hours) was 34 mm and the zone of inhibition at 20 µg/disc ([3]; Staphylococcus epidermidis, Table 1, 24 h, triplicate, read-out: zone of growth inhibition, average diameter) was 50 mm. For the same compound, the “zone of growth inhibition” value ([3]; Table 3, 24 hours) was 50 mm.
